Measurements published in patent US11491134B2, “Composition for inhibiting skin cell proliferation and/or anti-inflammation method for inhibiting skin cell proliferation and/or anti-inflammation and method for treating skin diseases and/or inflammatory diseases” (Industrial Technology Research Institute, priority 2019, dated 2022).

Tested on: keratinocytes, HaCaT cells
Assay: Inhibition rate on keratinocyte (HaCaT cell) proliferation, MTT
Assay type: cell-based
Settings: Homo sapiens
Protocol: Dimethyl sulfoxide (DMSO) was used as a solvent to prepare apigenin test samples with different concentrations and luteolin test samples with different concentrations. 9 batches of experiments were performed, which respectively were Batch 1 to Batch 9. There were 6 independent experiments in each batch of experiments. In each independent experiment, inhibition rate of an apigenin test sample with a specific concentration on keratinocyte proliferation and inhibition rate of a luteolin test sample with a specific concentration on keratinocyte proliferation were determined, and inhibition rate of a combination of an apigenin test sample with the said specific concentration and a luteolin test sample with the said specific concentration on keratinocyte proliferation was determined. Between the independent experiments, concentrations of apigenin test samples used were different, and concentrations of luteolin test samples used were also different, however, mole ratios or weight ratios of apigenin test samples to luteolin test samples were the same. Moreover, between the batches of experiments, mole ratios or weight ratios of apigenin test samples to luteolin test samples were different. 5×10^3 keratinocytes, HaCaT cells, were inoculated in a 96-well culture plate and then placed in a 37° C. and 5% CO2 incubator for culturing overnight, and cell numbers at this time point (T0) was used as a benchmark for cell proliferation. After overnight culture, a test sample was added to the cells in the culture plate (refer to Table 1, and the cells of the control group were only treated with dimethyl sulfoxide) for co-culturing for 48 hours (T48). After that, the supernatant in the culture plate was removed. After the supernatant was removed, 50 μL MTT solution (0.5 mg/mL; Life Technologies Cat. No. M-6494) was added to cells and then the culture plate was placed in a 37° C. and 5% CO2 incubator for culturing for 1.5 hours. After that, 150 μL DMSO (J. T. Baker, Cat. No. 9224-03) was added to the cells in the culture plate and shaken for 5 minutes. Thereafter, the absorbance of each well of the culture plate was determined at 570 nm by a continuous wavelength microplate reader, and inhibition rate on cell proliferation was calculated through the following formula: Inhibition rate on cell proliferation=T48 Control group570 nm−T48 Experimental group570 nm)/(T48 Control group570 nm−T0 Control group570 nm) In this experiment, the synergistic effects of apigenin and luteolin were evaluated by CalcuSyn software (BIOSOFT). CalcuSyn software is an analysis software which is commonly used to analyze the drug dosage effect of single drug and multiple drugs at present. CalcuSyn software can be used to analyze drug complex interactions and automatically quantify various phenomena such as synergism and inhibition. CalcuSyn software can process the data of individual drugs and combination drugs with constant-ratio or on-constant-ratio, and can evaluate the interaction of combination drugs by the combination index (CI) (Chou and Talalay, Adv. Enzyme Regul. 22:27-55 (1984) calculated by CalcuSyn software. Calculation formula for the combination index is shown in the following: Combination index=C1/IC1+C2/IC2 C1 and C2 are the respective concentrations of the first compound and the second compound at which the activity of achieving a specific physiological or medical purpose is 50% (or 75%, or 90%) when the first compound and the second compound are analyzed in combination; IC1 and IC2 are the respective concentrations at which the activity of achieving a specific physiological or medical purpose of the first compound and the second compound is 50% (or 75%, or 90%) when the first compound and the second compound are independently analyzed. […]

O=c1cc(-c2ccc(O)c(O)c2)oc2cc(O)cc(O)c12 [Luteolin, luteolin]
inhibition at 3.125 µM (Batch 1, luteolin 3.125 μM/0.89 μg/mL): 0%
inhibition at 6.25 µM (Batch 1, luteolin 6.25 μM/1.79 μg/mL): 0.9%
inhibition at 12.5 µM (Batch 1, luteolin 12.5 μM/3.58 μg/mL): 17.2%
inhibition at 25 µM (Batch 1, luteolin 25 μM/7.16 μg/mL): 44.6%
inhibition at 50 µM (Batch 1, luteolin 50 μM/14.31 μg/mL): 67.7%
inhibition at 100 µM (Batch 1, luteolin 100 μM/28.62 μg/mL): 101%
inhibition at 1.5625 µM (Batch 2, luteolin 1.5625 μM/0.45 μg/mL): 11.3%
inhibition at 3.125 µM (Batch 2, luteolin 3.125 μM/0.89 μg/mL): 5.1%
inhibition at 6.25 µM (Batch 2, luteolin 6.25 μM/1.79 μg/mL): 19.6%
inhibition at 12.5 µM (Batch 2, luteolin 12.5 μM/3.58 μg/mL): 35%
inhibition at 25 µM (Batch 2, luteolin 25 μM/7.16 μg/mL): 53.8%
inhibition at 50 µM (Batch 2, luteolin 50 μM/14.31 μg/mL): 75.2%
inhibition at 0.625 µM (Batch 3, luteolin 0.625 μM/0.18 μg/mL): 1.9%
inhibition at 1.25 µM (Batch 3, luteolin 1.25 μM/0.36 μg/mL): 2.8%
inhibition at 2.5 µM (Batch 3, luteolin 2.5 μM/0.72 μg/mL): 4.3%
inhibition at 5 µM (Batch 3, luteolin 5 μM/1.43 μg/mL): 13.7%
inhibition at 10 µM (Batch 3, luteolin 10 μM/2.86 μg/mL): 31.9%
inhibition at 20 µM (Batch 3, luteolin 20 μM/5.72 μg/mL): 55.6%
inhibition at 0.3125 µM (Batch 4, luteolin 0.3125 μM/0.09 μg/mL): 0.4%
inhibition at 0.625 µM (Batch 4, luteolin 0.625 μM/0.18 μg/mL): 0%
inhibition at 1.25 µM (Batch 4, luteolin 1.25 μM/0.36 μg/mL): 0%
inhibition at 2.5 µM (Batch 4, luteolin 2.5 μM/0.72 μg/mL): 0%
inhibition at 5 µM (Batch 4, luteolin 5 μM/1.43 μg/mL): 0.8%
inhibition at 10 µM (Batch 4, luteolin 10 μM/2.86 μg/mL): 6.6%
inhibition at 0.15625 µM (Batch 5, luteolin 0.15625 μM/0.04 μg/mL): 11.4%
inhibition at 0.3125 µM (Batch 5, luteolin 0.3125 μM/0.09 μg/mL): 14%
inhibition at 0.625 µM (Batch 5, luteolin 0.625 μM/0.18 μg/mL): 4.3%
inhibition at 1.25 µM (Batch 5, luteolin 1.25 μM/0.36 μg/mL): 0%
inhibition at 2.5 µM (Batch 5, luteolin 2.5 μM/0.72 μg/mL): 0%
inhibition at 5 µM (Batch 5, luteolin 5 μM/1.43 μg/mL): 3.3%
inhibition at 3.125 µM (Batch 6, luteolin 3.125 μM/0.89 μg/mL): 0%
inhibition at 6.25 µM (Batch 6, luteolin 6.25 μM/1.79 μg/mL): 0.6%
inhibition at 12.5 µM (Batch 6, luteolin 12.5 μM/3.58 μg/mL): 18.5%
inhibition at 25 µM (Batch 6, luteolin 25 μM/7.16 μg/mL): 42.2%
inhibition at 50 µM (Batch 6, luteolin 50 μM/14.31 μg/mL): 57.8%
inhibition at 100 µM (Batch 6, luteolin 100 μM/28.62 μg/mL): 94.2%
inhibition at 3.125 µM (Batch 7, luteolin 3.125 μM/0.89 μg/mL): 8.6%
inhibition at 6.25 µM (Batch 7, luteolin 6.25 μM/1.79 μg/mL): 19%
inhibition at 12.5 µM (Batch 7, luteolin 12.5 μM/3.58 μg/mL): 37.5%
inhibition at 25 µM (Batch 7, luteolin 25 μM/7.16 μg/mL): 55.1%
inhibition at 50 µM (Batch 7, luteolin 50 μM/14.31 μg/mL): 70.1%
inhibition at 100 µM (Batch 7, luteolin 100 μM/28.62 μg/mL): 108%
inhibition at 3.125 µM (Batch 8, luteolin 3.125 μM/0.89 μg/mL): 5.2%
inhibition at 6.25 µM (Batch 8, luteolin 6.25 μM/1.79 μg/mL): 13.8%
inhibition at 12.5 µM (Batch 8, luteolin 12.5 μM/3.58 μg/mL): 33.5%
inhibition at 25 µM (Batch 8, luteolin 25 μM/7.16 μg/mL): 50.7%
inhibition at 50 µM (Batch 8, luteolin 50 μM/14.31 μg/mL): 63.6%
inhibition at 100 µM (Batch 8, luteolin 100 μM/28.62 μg/mL): 100%
inhibition at 3.125 µM (Batch 9, luteolin 3.125 μM/0.89 μg/mL): 4.2%
inhibition at 6.25 µM (Batch 9, luteolin 6.25 μM/1.79 μg/mL): 11%
inhibition at 12.5 µM (Batch 9, luteolin 12.5 μM/3.58 μg/mL): 30.1%
inhibition at 25 µM (Batch 9, luteolin 25 μM/7.16 μg/mL): 47.8%
inhibition at 50 µM (Batch 9, luteolin 50 μM/14.31 μg/mL): 62%
inhibition at 100 µM (Batch 9, luteolin 100 μM/28.62 μg/mL): 104%
